Assay results published in ChEMBL document CHEMBL1153335, “Incorporation of neutral C-terminal residues in 3-amidinophenylalanine-derived matriptase inhibitors” (Bioorg Med Chem Lett, 2009).

How the values were obtained:
[1] = biological target: Urokinase-type plasminogen activator (Homo sapiens, UniProt P00749); assay: Inhibition of uPA
[2] = biological target: Plasminogen (Homo sapiens, UniProt P00747); assay: Inhibition of plasmin
[3] = biological target: T1, Suppressor of tumorigenicity 14 protein (Homo sapiens, UniProt Q9Y5Y6); assay: Inhibition of matriptase
T1 sequence (Q9Y5Y6 whole entry): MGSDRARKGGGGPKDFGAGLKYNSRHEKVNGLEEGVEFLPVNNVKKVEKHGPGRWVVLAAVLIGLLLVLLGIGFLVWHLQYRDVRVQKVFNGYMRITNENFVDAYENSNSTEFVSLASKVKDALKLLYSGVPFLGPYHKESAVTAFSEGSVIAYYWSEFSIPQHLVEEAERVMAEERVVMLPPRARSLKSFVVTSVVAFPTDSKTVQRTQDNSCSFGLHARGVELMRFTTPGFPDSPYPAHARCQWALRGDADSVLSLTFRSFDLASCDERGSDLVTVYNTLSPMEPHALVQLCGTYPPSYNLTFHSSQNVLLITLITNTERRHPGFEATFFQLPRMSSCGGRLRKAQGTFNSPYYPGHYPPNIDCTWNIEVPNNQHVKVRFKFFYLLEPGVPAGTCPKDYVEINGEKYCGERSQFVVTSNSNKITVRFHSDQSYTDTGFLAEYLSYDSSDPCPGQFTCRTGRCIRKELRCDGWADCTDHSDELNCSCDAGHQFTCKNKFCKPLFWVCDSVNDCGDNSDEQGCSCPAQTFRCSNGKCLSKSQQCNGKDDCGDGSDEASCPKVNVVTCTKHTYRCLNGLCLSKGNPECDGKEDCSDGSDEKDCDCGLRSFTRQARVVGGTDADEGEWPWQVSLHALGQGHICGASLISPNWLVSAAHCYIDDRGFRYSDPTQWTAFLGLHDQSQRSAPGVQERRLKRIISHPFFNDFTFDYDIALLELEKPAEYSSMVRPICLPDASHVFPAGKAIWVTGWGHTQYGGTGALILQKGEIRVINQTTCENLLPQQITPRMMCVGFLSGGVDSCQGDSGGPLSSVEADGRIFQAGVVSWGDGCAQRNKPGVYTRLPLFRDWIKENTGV

[4] = biological target: Coagulation factor X (Homo sapiens, UniProt P00742); assay: Inhibition of factor 10a
Sequence of Coagulation factor X (P00742 41-179 limits assumed): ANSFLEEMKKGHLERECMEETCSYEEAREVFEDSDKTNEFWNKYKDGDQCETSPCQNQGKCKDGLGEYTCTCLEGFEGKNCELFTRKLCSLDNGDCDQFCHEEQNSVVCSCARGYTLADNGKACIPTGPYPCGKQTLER
Sequence of Coagulation factor X (P00742 235-488 limits assumed): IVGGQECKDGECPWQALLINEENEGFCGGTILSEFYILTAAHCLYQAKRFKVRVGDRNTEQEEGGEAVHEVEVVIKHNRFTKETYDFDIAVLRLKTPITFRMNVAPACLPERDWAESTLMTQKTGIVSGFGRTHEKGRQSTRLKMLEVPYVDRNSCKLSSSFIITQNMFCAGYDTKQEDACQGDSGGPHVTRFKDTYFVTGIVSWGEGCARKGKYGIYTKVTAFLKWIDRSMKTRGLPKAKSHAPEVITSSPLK

[5] = biological target: Prothrombin (Homo sapiens, UniProt P00734); assay: Inhibition of thrombin
[6] = tested on: Rattus norvegicus; assay: Cmax in rat assessed as melagatran level at 20 mg/kg, po after 120 mins; assay type: ADME, organism-based; set-up: dose 20 mg/kg, route oral; details: in vivo, 2 h
[7] = tested on: Rattus norvegicus; assay: Cmax in rat assessed as N-hydroxy-melagatran level at 20 mg/kg, po after 120 mins; assay type: ADME, organism-based; set-up: dose 20 mg/kg, route oral; details: in vivo, 2 h

Sequence of Plasminogen (P00747 97-580 limits assumed): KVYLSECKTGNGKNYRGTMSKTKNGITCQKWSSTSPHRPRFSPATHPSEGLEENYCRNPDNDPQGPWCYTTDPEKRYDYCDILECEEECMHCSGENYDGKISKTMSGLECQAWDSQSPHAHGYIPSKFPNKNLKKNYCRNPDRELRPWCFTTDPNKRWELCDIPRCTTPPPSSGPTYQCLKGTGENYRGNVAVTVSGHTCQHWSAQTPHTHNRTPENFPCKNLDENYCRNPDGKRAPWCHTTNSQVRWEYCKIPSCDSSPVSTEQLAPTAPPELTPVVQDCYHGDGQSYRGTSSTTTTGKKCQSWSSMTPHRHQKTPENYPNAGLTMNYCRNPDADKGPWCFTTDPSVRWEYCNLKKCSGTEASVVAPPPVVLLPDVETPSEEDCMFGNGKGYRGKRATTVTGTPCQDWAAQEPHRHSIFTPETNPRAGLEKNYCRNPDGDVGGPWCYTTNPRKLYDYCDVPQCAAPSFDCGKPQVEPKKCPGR
Sequence of Plasminogen (P00747 581-810 limits assumed): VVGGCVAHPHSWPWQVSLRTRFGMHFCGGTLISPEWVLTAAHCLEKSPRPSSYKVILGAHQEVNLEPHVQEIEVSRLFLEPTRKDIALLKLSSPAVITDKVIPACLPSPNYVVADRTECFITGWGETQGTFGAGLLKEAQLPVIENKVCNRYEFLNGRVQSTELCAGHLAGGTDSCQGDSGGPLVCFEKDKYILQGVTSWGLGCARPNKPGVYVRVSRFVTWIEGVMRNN

Ki [1] | Ki [2] | Ki [3] | Ki [4] | Ki [5] | Cmax [6] | Cmax [7] | SMILES
9.2 µM | 13.4 µM | 0.065 µM | 26 µM | 5.1 µM | – | – | CCOC(=O)N1CCN(C(=O)[C@H](Cc2cccc(C(=N)N)c2)NS(=O)(=O)c2cccc(NC(=O)CCN)c2)CC1
34.5 µM | 4.5 µM | 0.47 µM | 17 µM | 0.395 µM | – | – | CC1CCCCN1C(=O)[C@H](Cc1cccc(C(=N)N)c1)NS(=O)(=O)c1cccc(NC(=O)CCN)c1 (some centres not stated)
126 µM | 69.4 µM | 2.4 µM | 127 µM | 10.6 µM | – | – | COC(=O)[C@@H]1CCCCN1C(=O)[C@H](Cc1cccc(C(=N)N)c1)NS(=O)(=O)c1cccc(NC(=O)CCN)c1
17 µM | 3.3 µM | – | 18 µM | 14 µM | – | – | N=C(N)c1cccc(C[C@H](NS(=O)(=O)c2cccc(NC(=O)CCN)c2)C(=O)N2CCC(CCCC(=O)O)CC2)c1
8.37 µM | 2.5 µM | 0.15 µM | 2.5 µM | 14.5 µM | – | – | N=C(N)c1cccc(C[C@H](NS(=O)(=O)c2cccc(NC(=O)CCN)c2)C(=O)N2CCN(c3ccc(O)cc3)CC2)c1
7.4 µM | 1.3 µM | – | 15 µM | 2.1 µM | – | – | N=C(N)c1cccc(C[C@H](NS(=O)(=O)c2cccc(NC(=O)CCN)c2)C(=O)N2CCCC(C(N)=O)C2)c1 (some centres not stated)
2.1 µM | 2.9 µM | – | 8.2 µM | 0.67 µM | – | – | N=C(N)c1cccc(C[C@H](NS(=O)(=O)c2cccc(NC(=O)CCN)c2)C(=O)N2CCC(CCCC(N)=O)CC2)c1
3 µM | 6.2 µM | 0.053 µM | 4.4 µM | 0.11 µM | – | – | CC1CCN(C(=O)[C@H](Cc2cccc(C(=N)N)c2)NS(=O)(=O)c2cccc(NC(=O)CCN)c2)CC1
2.6 µM | 3.3 µM | 0.033 µM | 10 µM | 0.27 µM | – | – | N=C(N)c1cccc(C[C@H](NS(=O)(=O)c2cccc(NC(=O)CCN)c2)C(=O)N2CCCCC2)c1
3.3 µM | 1.3 µM | 0.0075 µM | 19 µM | 1.4 µM | – | – | N=C(N)c1cccc(C[C@H](NS(=O)(=O)c2cccc(NC(=O)CCN)c2)C(=O)N2CCN(C(=O)OCc3ccccc3)CC2)c1
16.9 µM | 3.6 µM | 0.053 µM | 44 µM | 29 µM | – | – | CNC(=O)CCC(=O)N1CCN(C(=O)[C@H](Cc2cccc(C(=N)N)c2)NS(=O)(=O)c2cccc(NC(=O)CCN)c2)CC1
3.3 µM | 1.6 µM | – | 10 µM | 0.85 µM | – | – | CNC(=O)CCCC1CCN(C(=O)[C@H](Cc2cccc(C(=N)N)c2)NS(=O)(=O)c2cccc(NC(=O)CCN)c2)CC1
2.2 µM | 2.8 µM | 0.017 µM | 3.4 µM | 0.35 µM | – | – | N=C(N)c1cccc(C[C@H](NS(=O)(=O)c2cccc(NC(=O)CCN)c2)C(=O)N2CCC(Cc3ccccc3)CC2)c1
193 µM | 79 µM | 11 µM | 30 µM | 159 µM | – | – | N=C(N)c1cccc(C[C@H](NS(=O)(=O)c2cccc(NC(=O)CCN)c2)C(=O)N2CCCC[C@H]2C(=O)O)c1
7.3 µM | 9.4 µM | 0.18 µM | 11 µM | 2.3 µM | – | – | N=C(N)c1cccc(C[C@H](NS(=O)(=O)c2cccc(NC(=O)CCN)c2)C(=O)N2CCCC[C@@H]2C(=O)O)c1
– | – | – | – | – | 1000 nM | 1100 nM | CCOC(=O)CN[C@@H](C(=O)N1CC[C@H]1C(=O)NCc1ccc(/C(N)=N\O)cc1)C1CCCCC1 [XIMELAGATRAN]
3.3 µM | 1.2 µM | 0.013 µM | 2.5 µM | 1.25 µM | – | – | N=C(N)c1cccc(C[C@H](NS(=O)(=O)c2cccc(NC(=O)CCN)c2)C(=O)N2CCC(C(N)=O)CC2)c1
76 µM | 4.9 µM | 0.1 µM | 0.1 µM | 24.2 µM | – | – | COC(=O)[C@H]1CCCCN1C(=O)[C@H](Cc1cccc(C(=N)N)c1)NS(=O)(=O)c1cccc(NC(=O)CCN)c1
2.5 µM | 2.8 µM | – | 6.1 µM | 0.6 µM | – | – | COC(=O)CCCC1CCN(C(=O)[C@H](Cc2cccc(C(=N)N)c2)NS(=O)(=O)c2cccc(NC(=O)CCN)c2)CC1
0.88 µM | 2.56 µM | 0.037 µM | 2.1 µM | 71.7 µM | – | – | N=C(N)c1cccc(C[C@H](NS(=O)(=O)c2cccc(NC(=O)CCN)c2)C(=O)N2CCNCC2)c1
